Our source for the IC50 and melting point values is patent publication US7378440B2, “Substituted benzoylureido-o-benzoylamides, process for their preparation and their use” (Sanofi-Aventis Deutschland GmbH, priority 2003, dated 2008).

Data set [1] has as its target T1, human glycogen phosphorylase a (Homo sapiens, UniProt P06737).
T1 sequence (P06737 1-847): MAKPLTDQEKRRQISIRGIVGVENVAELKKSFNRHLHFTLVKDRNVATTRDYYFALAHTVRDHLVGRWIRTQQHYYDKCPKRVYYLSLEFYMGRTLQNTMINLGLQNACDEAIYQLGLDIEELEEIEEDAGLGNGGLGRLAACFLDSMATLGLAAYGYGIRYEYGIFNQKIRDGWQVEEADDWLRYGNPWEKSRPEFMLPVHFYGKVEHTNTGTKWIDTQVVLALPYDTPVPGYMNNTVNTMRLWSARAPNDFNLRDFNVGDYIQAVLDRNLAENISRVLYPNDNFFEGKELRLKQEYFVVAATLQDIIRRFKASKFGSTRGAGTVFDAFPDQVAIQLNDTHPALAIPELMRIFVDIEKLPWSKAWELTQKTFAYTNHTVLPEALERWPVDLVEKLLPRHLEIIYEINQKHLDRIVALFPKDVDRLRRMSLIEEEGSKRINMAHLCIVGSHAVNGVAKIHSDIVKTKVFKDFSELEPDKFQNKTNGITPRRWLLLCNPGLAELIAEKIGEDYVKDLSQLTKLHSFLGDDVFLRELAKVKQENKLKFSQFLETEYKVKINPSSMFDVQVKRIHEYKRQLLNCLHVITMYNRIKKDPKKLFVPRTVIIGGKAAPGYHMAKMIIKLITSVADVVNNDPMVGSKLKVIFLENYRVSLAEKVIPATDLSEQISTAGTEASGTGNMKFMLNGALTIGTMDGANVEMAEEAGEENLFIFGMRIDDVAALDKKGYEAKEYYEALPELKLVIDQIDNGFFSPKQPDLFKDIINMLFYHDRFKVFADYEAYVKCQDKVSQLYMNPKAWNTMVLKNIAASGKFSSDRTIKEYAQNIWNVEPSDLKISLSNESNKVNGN
The experiment in a line: Glycogen phosphorylase a activity assay. Type of data set: biochemical. Conditions: inhibition of GPa measured in reverse direction (glycogen synthesis from glucose 1-phosphate, liberated phosphate, absorption 820 nm). The method, then:
Glycogen Phosphorylase a Activity Assay
The effect of compounds on the activity of the active form of glycogen phosphorylase (GPa) was measured in the reverse direction by following the synthesis of glycogen from glucose 1-phosphate by determining the liberation of inorganic phosphate. All the reactions were carried out as duplicate determinations in microtiter plates with 96 wells (Half Area Plates, Costar No 3696), measuring the change in absorption owing to the formation of the reaction product at the wavelength specified hereinafter in a Multiskan Ascent Elisa Reader (Lab Systems, Finland).
In order to measure the GPa enzymic activity in the reverse direction, the general method of Engers et al. (Engers H D, Shechosky S, Madsen N B, Can J Biochem 1970 July;48(7):746-754) was used to measure the conversion of glucose 1-phosphate into glycogen and inorganic phosphate, with the following modifications: human glycogen phosphorylase a (for example with 0.76 mg of protein/ml (Aventis Pharma Deutschland GmbH), dissolved in buffer solution E (25 mM β-glycerophosphate, pH 7.0, 1 mM EDTA and 1 mM dithiothreitol) was diluted with buffer T (50 mM Hepes, pH 7.0, 100 mM KCl, 2.5 mM EDTA, 2.5 mM MgCl2.6H2O) and addition of 5 mg/ml glycogen to a concentration of 10 μg of protein/ml. Test substances were prepared as 10 mM solution in DMSO and diluted to 50 μM with buffer solution T. To 10 μl of this solution were added 10 μl of 37.5 mM glucose, dissolved in buffer solution T, and 5 mg/ml glycogen, plus 10 μt of a solution of human glycogen phosphorylase a (10 μg of protein/ml) and 20 μl of glucose 1-phosphate, 2,5 mM. The baseline glycogen phosphorylase a activity in the absence of test substance was determined by adding 10 μl of buffer solution T (0.1% DMSO). The mixture was incubated at room temperature for 40 minutes, and the liberated […] was measured by the general method of Drueckes et al. (Drueckes P, Schinzel R, Palm D, Anal Biochem 1995 Sep. 1;230(1):173-177) with the following modifications: 50 μl of a stop solution of 7.3 mM ammonium molybdate, 10.9 mM zinc acetate, 3.6% ascorbic acid, 0.9% SDS are added to 50 μl of the enzyme mixture. After incubation at 45° C. for 60 minutes, the absorption at 820 nm was measured. To determine the background absorption, in a separate mixture the stop solution was added immediately after addition of the glucose 1-phosphate solution. […]

With `O=C(NC(=O)c1cc(F)c(F)cc1Cl)Nc1ccccc1C(=O)N1CCC[C@@H]1C(=O)O` [Example 1, R-1-{2-[3-(2-Chloro-4,5-difluorobenzoyl)ureido]benzoyl}pyrrolidine-2-carboxylic acid], the melting point (in general, the temperature of the solid-liquid transition) amounted to 123.5 °C. For the same compound, the IC50 (as a rule, the point on the concentration scale where inhibition reaches its midpoint) in data set [1] was 30 nM.

The compound `O=C(NC(=O)c1cc(F)c(F)cc1Cl)Nc1ccccc1C(=O)N1CCC[C@H]1C(=O)O` [Example 2] registered a melting point of 128.4 °C. In data set [1], the IC50 was 2100 nM.

Consider `O=C(NC(=O)c1cc(F)c(F)cc1Cl)Nc1ccccc1C(=O)N1CCCC1C(=O)O` (stereo not shown) [Example 3], for which the melting point amounted to 193.1 °C. For the same compound, in data set [1], the half-maximal inhibitory concentration (IC50) was found to be 120 nM.

Regarding `COC(=O)[C@H]1CCCN1C(=O)c1ccccc1NC(=O)NC(=O)c1cc(F)c(F)cc1Cl` [Example 4], the concentration for half-maximal inhibition (IC50) in data set [1] was 570 nM.

Compound `O=C(NC(=O)c1cc(F)c(F)cc1Cl)Nc1ccccc1C(=O)N1CCC1C(=O)O` (stereo not shown) [Example 5] had a melting point of 99 °C. The IC50 in data set [1] is 30 nM.

Compound `O=C(NC(=O)c1cc(F)c(F)cc1Cl)Nc1ccccc1C(=O)N1CC(F)(F)CC1C(=O)O` (stereo not shown) [Example 6] displayed a melting point of 102 °C. Besides, the IC50 in data set [1] came out at 1400 nM.

The compound `O=C(NC(=O)c1cc(F)c(F)cc1Cl)Nc1ccccc1C(=O)N1C2CCCCC2C[C@H]1C(=O)O` (stereo partly shown) [Example 7] had a melting point of 125 °C. Besides, in data set [1], the IC50 came to 4000 nM.
